From patent publication US8215314B2, “Photochemical tissue bonding” (The General Hospital Corporation, priority 2000, dated 2012)

What was measured:
[1] = system: corneal incision, rabbit eyes ex vivo; assay: IOP required to produce fluid leakage from corneal incision (IOPL) after PTB, ex vivo; settings: for mean IOPL: RB 1.5 mM, 514 nm
Procedure: PTB can be used to seal or repair a tissue, e.g., a wound, e.g., a corneal wound. This example illustrates the experimental procedure designed to test the efficacy of PTB, as described herein, using mammalian corneas ex vivo. Experiments were performed according to the following procedure.
Rabbit eyes were received on ice (Pel-Freez Biologicals) approximately 17-24 hours after sacrifice and enucleation. The eyes were kept on ice and used the same day. The eye to be studied was mounted on a plastic-covered polystyrene block and fixed in position by needles inserted through the extraocular muscles into the polystyrene. The eye was then placed under a dissecting microscope (Reichert Scientific Instruments, Ill.) allowing visualization of the treated area during the entire procedure. A 27 G needle was inserted parallel to the iris, 2 mm anterior to the limbus into clear cornea, and positioned above the lens in the anterior chamber. The needle was connected to both a blood pressure transducer (Harvard Apparatus, Mass.) and a mini-infuser 400 (Bard Harvard) via a T coupler. The pressure transducer consists of a transducer element that is hard wired to an amplifier box and uses a semi-disposable dome with an integral silicone rubber membrane. Pressure inside the dome is transmitted through the membrane to a plastic button whose motion is translated to a voltage. The voltage generated by the transducer amplifier combination is proportional to the […] intraocular pressure (IOP). Signals from the transducer amplifier were recorded using a Macintosh G3 Power book equipped with a PCMICA (DAQCARD—1200) data acquisition card (National Instruments, Tex.). Data acquisition was controlled using programs written using the LabView 4 software package (National Instruments, Tex.). The voltage from the transducer and amplifier was converted to pressure by calibrating with a standing manometer.
Experiments on individual eyes were initiated by increasing the IOP to 30-40 mm Hg, using water infusion at a rate of 1 mL per minute. An incision was made in the cornea, 1 mm from the limbus and parallel to the iris, using a 3.5 mm angled keratome (Becton Dickinson Co.). For each eye the IOP required to produce fluid leakage from the incision (IOPL) was recorded pre- and post-PTB treatment. A photosensitizer, dissolved in phosphate buffer solution (PBS, pH 7.2, Gibco BRL) was applied to the walls of the incision using a Gastight, 50 μl syringe (Hamilton Co.) with a 27 G needle.
Irradiations employed a continuous wave (CW) argon-ion laser (Innova 100; Coherent, Inc., Palo Alto, Calif.) at 488 nm (for Fl and R-5-P), 514.5 nm (for RB) or 351 nm (for NHPT). An argon-ion-pumped dye laser (CR-599; Coherent) with 4-dicyanomethylene-2-methyl-6-(p-dimethylaminostyryl)-4H-pyran dye (Exciton, Inc., Dayton, Ohio) was used for irradiation at 661 nm (for MB). Laser light was coupled into a 1 mm diameter quartz fiber and a 1 cm diameter spot on the tissue was created by using a combination of 1 and 2 inch focal length, S1-UV grade fused silica, biconvex lenses (Esco Products), mounted in a SM1 series cage assembly (Thorlabs, N.J.). The 1 cm diameter circular spot was sufficient to cover the entire incision and the optics were adjusted so that the laser light was incident on the cornea at an angle approximately 45° to the plane of the incision. Dose response curves were obtained by varying the duration of the irradiation at a constant irradiance. In separate experiments the effects of laser irradiance were investigated by comparison of the same delivered dose using different irradiances. The doses used ranged from 124 to 1524 J/cm^2 and the irradiances used were 0.64, 1.27, 2.55 and 3.86 W/cm^2. The laser exposure time varied from 33 seconds for the lowest dose using the highest irradiance to 26 minutes, 27 seconds for the highest dose using the lowest irradiance. The IOPL was recorded immediately following treatment. […]

[2] = system: epidermal cells of skin grafts; assay: Trypan blue exclusion assay of epidermal cells from skin grafts after PTB; assay type: cell-based, mini pigs; settings: 0.1% RB
Procedure: The cell viability in the skin grafts was further assessed quantitatively by trypan blue exclusion assay. The upper grafts were chosen to be examined because they absorbed more light, and therefore would be damaged to a greater extent, if any, than the lower ones. Following irradiation, the upper skin grafts were incubated with 1 mg/ml dispase (Life Technologies, Rockville, Md.) in PBS overnight at 4° C. The epidermis was gently peeled off from the dermis and washed twice in PBS. Epidermal cells were released by incubating the epidermis with 0.25% trypsin-EDTA (Cellgro) at 37° C. for 15 minutes, accompanied by gentle agitation. Fetal calf serum (FCS) was added to inhibit trypsin activity and the cell suspension was then centrifuged at 2500 rpm for 10 mins. The cell pellet was washed once and re-suspended in PBS. The trypan blue exclusion assay was performed after mixing equal volumes of cell suspension and 0.2% (w/v) trypan blue and loading onto a hemocytometer. The number of viable cells released from each skin graft was calculated. After preparing a single cell suspension from intact epidermis, the cell viability was assessed (FIG. 11).

esophageal keratinocytes = assay: NADH-diaphorase viability of esophageal keratinocytes after PTB; assay type: cell-based
Procedure: The viability of the photoactivated cells was also assessed. Nicotinamide adenine dinucleotide (NADH-diaphorase) staining was carried out based on the methods described by Heisterkamp J et al. (1999) Lasers Sug Med 25(3): 257-62 and Neumann R A et al. (1991) J Am Acad Dermatol 25: 991-8. Following irradiation, the keratinocyte layer was gently peeled away from the collagen gel and was exposed overnight to an incubation solution consisting of nicotinamide adenine dinucleotide (NADH) and nitroblue tetrazolium chloride (NBT) (Sigma). The viability of the cells was indicated by the formation of a water-insoluble blue precipitate (diformazan), which corresponded to areas with NADH-diaphorase activity. The insoluble blue precipitate was dissolved in DMSO (an organic solvent) and quantified by measuring the optical density (OD) at 550 nm against a commercially available standard. The negative control, RB control, and the laser control composites were also tested using identical conditions. It was determined for the negative control, RB control, laser control, 50 J/cm^2 composite sample, and the 100 J/cm^2 composite sample that the levels of corresponding blue precipitate were 143, 151, 158, 173 and 158 diformazan/nM after photochemical tissue bonding treatment (FIG. 16).

Structure (SMILES): O=C([O-])c1c(Cl)c(Cl)c(Cl)c(Cl)c1-c1c2cc(I)c(=O)c(I)c-2oc2c(I)c([O-])c(I)cc12.[Na+].[Na+] [Rose Bengal]
- mean IOPL post-treatment ([1]; 1.5 mM RB and 514 nm laser light): greater than 300±48 mm Hg
- mean IOPL ([1]; 1270 J/cm^2 at 1.27 W/cm^2): 274 mm Hg
- mean IOPL ([1]; 1270 J/cm^2 at 2.55 W/cm^2): 150 mm Hg
- mean IOPL ([1]; 1270 J/cm^2 at 3.86 W/cm^2): 130 mm Hg
- IOPL ([1]; RB, all doses delivered at 1.27 and 2.55 W/cm^2): greater than 100 mm Hg
- rise in IOPL ([1]; RB, doses below 508 J/cm^2 at any irradiance tested): No significant rise
- increase between pre- and post-treatment IOPL ([1]; photosensitizer alone, no laser irradiation): no significant increase
- number of viable cells per skin graft vs control ([2]; 0.56 W/cm^2, 126, 252 and 504 J/cm^2): not significantly different
- number of viable cells relative to control group ([2]; 504 J/cm^2): ~80%
- level of blue precipitate (NADH-diaphorase viability) (esophageal keratinocytes; 0.1% RB, 50 J/cm^2): 173 diformazan/nM
- level of blue precipitate (NADH-diaphorase viability) (esophageal keratinocytes; 0.1% RB, 100 J/cm^2): 158 diformazan/nM
- level of blue precipitate (NADH-diaphorase viability) (esophageal keratinocytes; RB control: RB treated, nonirradiated): 151 diformazan/nM
